Reference: US20150344457A1, “METHODS OF INHIBITING PRMT5” (EPIZYME, INC., priority 2012, published 2015)
Where two headings read alike, the source gives them in different places.

Legend:
PRMT5/MEP50 = target: T1, PRMT5/MEP50 (Homo sapiens, UniProt O14744); assay: PRMT5 Biochemical Assay (PRMT5/MEP50 enzyme assay on peptide substrate, 3H-SAM Flashplate); details: read-out: Biochemical IC50
T1 construct: Expressed full-length human Flag-PRMT5/6His-MeP50 protein complex was purified; made in house; host or cells: Spodoptera frugiperda (SF9) insect cells, baculovirus (pDEST8)

Z-138 cells = assay: Z-138 Proliferation Assay (Cell Titer Glo, 5 days); format: cell-based; details: Homo sapiens, Table D-2
Text: Z-138 Proliferation Assay
Z-138 suspension cells were purchased from ATCC (American Type Culture Collection, Manassas, Va.). RPMI/Glutamax medium, penicillin-streptomycin, heat inactivated fetal bovine serum were purchased from Life Technologies, Grand Island, N.Y., USA. V-bottom polypropylene 384-well plates were purchased from Greiner Bio-One, Monroe, N.C., USA. Cell culture 384-well white opaque plates were purchased from Perkin Elmer, Waltham, Mass., USA. Cell-Titer Gb® was purchased from Promega Corporation, Madison, Wis., USA. SpectraMax M5 plate reader was purchased from Molecular Devices LLC, Sunnyvale, Calif., USA.
Z-138 suspension cells were maintained in growth medium (RPMI 1640 supplemented with 10% v/v heat inactivated fetal bovine serum and cultured at 37° C. under 5% CO2. Under assay conditions, cells were incubated in assay medium (RPMI 1640 supplemented with 10% v/v heat inactivated fetal bovine serum and 100 units/mL penicillin-streptomycin) at 37° C. under 5% CO2.
For the assessment of the effect of compounds on the proliferation of the Z-138 cell line, exponentially growing cells were plated in 384-well white opaque plates at a density of 10,000 cells/ml in a final volume of 50 μl of assay medium. A compound source plate was prepared by performing triplicate nine-point 3-fold serial dilutions in DMSO, beginning at 10 mM (final top concentration of compound in the assay was 20 μM and the DMSO was 0.2%). A 100 nL aliquot from the compound stock plate was added to its respective well in the cell plate. […] After addition of compounds, assay plates were incubated for 5 days at 37° C., 5% CO2, relative humidity >90%.
Cell viability was measured by quantitation of ATP present in the cell cultures, adding 35 μl of Cell Titer Glo® reagent to the cell plates. Luminescence was read in the SpectraMax M5 microplate reader. The concentration of compound inhibiting cell viability by 50% was determined using a 4-parametric fit of the normalized dose response curves.

T1 sequence (O14744 with tags, fused parts or gaps): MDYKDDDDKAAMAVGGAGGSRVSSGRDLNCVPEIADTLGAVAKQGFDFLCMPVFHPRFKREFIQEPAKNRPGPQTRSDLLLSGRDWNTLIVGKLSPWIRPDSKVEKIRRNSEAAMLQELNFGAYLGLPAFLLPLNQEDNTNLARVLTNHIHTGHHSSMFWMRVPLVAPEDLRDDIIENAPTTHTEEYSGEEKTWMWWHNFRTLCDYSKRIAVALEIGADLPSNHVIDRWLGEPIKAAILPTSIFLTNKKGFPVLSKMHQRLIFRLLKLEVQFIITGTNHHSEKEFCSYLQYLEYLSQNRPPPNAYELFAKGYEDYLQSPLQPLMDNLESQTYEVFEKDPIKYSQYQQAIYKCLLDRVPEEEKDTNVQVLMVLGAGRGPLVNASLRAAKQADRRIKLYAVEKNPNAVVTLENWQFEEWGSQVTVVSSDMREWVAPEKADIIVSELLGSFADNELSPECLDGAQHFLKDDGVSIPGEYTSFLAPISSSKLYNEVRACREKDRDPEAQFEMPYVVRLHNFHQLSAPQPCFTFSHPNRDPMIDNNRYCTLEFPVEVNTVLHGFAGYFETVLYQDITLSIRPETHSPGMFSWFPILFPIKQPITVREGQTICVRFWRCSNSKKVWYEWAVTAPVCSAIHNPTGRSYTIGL
T1 sequence (Q9BQA1 with tags, fused parts or gaps partner limits assumed): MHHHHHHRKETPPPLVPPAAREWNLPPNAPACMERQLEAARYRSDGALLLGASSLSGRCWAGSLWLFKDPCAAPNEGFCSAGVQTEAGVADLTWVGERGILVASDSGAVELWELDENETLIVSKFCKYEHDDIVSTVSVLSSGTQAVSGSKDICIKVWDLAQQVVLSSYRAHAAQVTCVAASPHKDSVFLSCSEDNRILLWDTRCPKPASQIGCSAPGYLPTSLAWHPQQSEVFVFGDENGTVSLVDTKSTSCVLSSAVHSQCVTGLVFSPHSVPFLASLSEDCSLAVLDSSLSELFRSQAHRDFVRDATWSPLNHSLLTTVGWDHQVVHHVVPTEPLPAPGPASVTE

With CC(=O)N1CCC(n2cnc3ccc(-c4cccc(OCC(O)CN5CCc6ccccc6C5)c4)cc32)CC1 (stereo not drawn) [Compound D228] the IC50 (PRMT5/MEP50; Table D-2) was 101 to 1000 nM.
With OC(CNc1cc(-c2ccc3ncn(C4CNC4)c3c2)ccn1)CN1CCc2ccccc2C1 (stereo not drawn) [Compound D229] the IC50 (PRMT5/MEP50; Table D-2) was < 100 nM.
With CN1CC(n2cnc3ccc(-c4ccnc(NCC(O)CN5CCc6ccccc6C5)c4)cc32)C1 (stereo not drawn) [Compound D230] the IC50 (PRMT5/MEP50; Table D-2) was < 100 nM.
With O=C(Cn1ccc2cnc(-c3cccc(OCC(O)CN4CCc5ccccc5C4)c3)nc21)N1CCCC1 (stereo not drawn) [Compound D231] the IC50 (PRMT5/MEP50; Table D-2) was 101 to 1000 nM.
For O=C(Cn1ccc2cnc(-c3cccc(OCC(O)CN4CCc5ccccc5C4)c3)nc21)N1CCCCC1 (stereo not drawn) [Compound D232], the IC50 (PRMT5/MEP50; Table D-2) was 101 to 1000 nM.
O=C(Nc1ccccn1)c1cccc(OCC(O)CN2CCc3ccccc3C2)c1 (stereo not drawn) [Compound D267] showed an IC50 (PRMT5/MEP50; Table D-2) of 101 to 1000 nM.
For O=C(Nc1cccnc1)c1cccc(OCC(O)CN2CCc3ccccc3C2)c1 (stereo not drawn) [Compound D268], the IC50 (PRMT5/MEP50; Table D-2) was 1000 to 10000 nM.
For O=C(Nc1cc[nH]n1)c1cccc(OCC(O)CN2CCc3ccccc3C2)c1 (stereo not drawn) [Compound D274], the IC50 (PRMT5/MEP50; Table D-2) was 1000 to 10000 nM.
In the case of Cn1cnc2ccc(-c3cccc(OCC(O)CN4Cc5ccccc5C(F)(F)C4)c3)cc21 (stereo not drawn) [Compound D277], the IC50 (PRMT5/MEP50; Table D-2) is reported as > 10000 nM.
Work on OC(COCc1ccc(Cl)cc1)CN1CCc2ccccc2C1 (stereo not drawn) [Compound D278] yielded an IC50 (PRMT5/MEP50; Table D-2) of 1000 to 10000 nM.
COc1c(COCC(O)CN2CCc3ccccc3C2)ccc2ccccc12 (stereo not drawn) [Compound D279] showed an IC50 (PRMT5/MEP50; Table D-2) of 1000 to 10000 nM.
Compound OC(COCc1c(Cl)cccc1Cl)CN1CCc2ccccc2C1 (stereo not drawn) [Compound D280] has an EC50 (Z-138 cells) of 10000 to 40000 nM and an IC50 (PRMT5/MEP50; Table D-2) of 1000 to 10000 nM.
In the case of OC(COCc1ccc(Cl)cc1Cl)CN1CCc2ccccc2C1 (stereo not drawn) [Compound D281], the IC50 (PRMT5/MEP50; Table D-2) is reported as 1000 to 10000 nM.
With OC(COCc1ccccn1)CN1CCc2ccccc2C1 (stereo not drawn) [Compound D282] the IC50 (PRMT5/MEP50; Table D-2) was 10000 to 40000 nM.
OC(COCc1cccnc1)CN1CCc2ccccc2C1 (stereo not drawn) [Compound D283] gave an IC50 (PRMT5/MEP50; Table D-2) of 10000 to 40000 nM.
Work on OC(COCc1ccncc1)CN1CCc2ccccc2C1 (stereo not drawn) [Compound D284] yielded an IC50 (PRMT5/MEP50; Table D-2) of 10000 to 40000 nM.
With OC(COc1ccc2c(c1)OCO2)CN1CCc2ccccc2C1 (stereo not drawn) [Compound D285] the EC50 (Z-138 cells) was > 20000 nM and the IC50 (PRMT5/MEP50; Table D-2) was 1000 to 10000 nM.
With CCCCNCc1cccc(COCC(O)CN2CCc3ccccc3C2)c1 (stereo not drawn) [Compound D286] the EC50 (Z-138 cells) was > 20000 nM and the IC50 (PRMT5/MEP50; Table D-2) was 101 to 1000 nM.
Compound CC(C)(C)OC(=O)N1CCC(OCC(O)CN2CCc3ccccc3C2)C1 (stereo not drawn) [Compound D287] has an IC50 (PRMT5/MEP50; Table D-2) of 1000 to 10000 nM.
In the case of COc1cccc(COCC(O)CN2CCc3ccccc3C2)c1 (stereo not drawn) [Compound D288], the EC50 (Z-138 cells) is reported as > 40000 nM and the IC50 (PRMT5/MEP50; Table D-2) is reported as 1000 to 10000 nM.
OC(COC1CCCC1)CN1CCc2ccccc2C1 (stereo not drawn) [Compound D302] gave an IC50 (PRMT5/MEP50; Table D-2) of 1000 to 10000 nM.
In the case of Nc1cccc(C(=O)NCC(O)CN2Cc3ccccc3C2)c1 (stereo not drawn) [Compound E2.], the IC50 (PRMT5/MEP50; Table E-2) is reported as 1000 to 10000 nM.
O=C(COc1cccc2cccnc12)NC[C@H](O)CN1Cc2ccccc2C1 [Compound E4.] was tested, and the IC50 (PRMT5/MEP50; Table E-2) was < 100 nM.
C[C@@H](Oc1cccc2cccnc12)C(=O)NC[C@H](O)CN1Cc2ccccc2C1 [Compound E5.] was tested, and the IC50 (PRMT5/MEP50; Table E-2) was < 100 nM.
In the case of C[C@H](Oc1cccc2cccnc12)C(=O)NC[C@@H](O)CN1Cc2ccccc2C1 [Compound E6.], the IC50 (PRMT5/MEP50; Table E-2) is reported as > 10000 nM.
For O=C(COc1ccccc1-c1cc[nH]n1)NCC(O)CN1Cc2ccccc2C1 (stereo not drawn) [Compound E7.], the IC50 (PRMT5/MEP50; Table E-2) was 101 to 1000 nM.
Cn1cnc2ccc(-c3cccc(OCC(O)CN4Cc5ccccc5C4)c3)cc21 (stereo not drawn) [Compound E9.] was tested, and the IC50 (PRMT5/MEP50; Table E-2) was 1000 to 10000 nM.
For CC(C)(C)OC(=O)Nc1cccc(C(=O)NCC(O)CN2Cc3ccccc3C2)c1 (stereo not drawn) [Compound E11.], the IC50 (PRMT5/MEP50; Table E-2) was 101 to 1000 nM.
With CS(=O)(=O)c1ccccc1OCC(=O)NCC(O)CN1Cc2ccccc2C1 (stereo not drawn) [Compound E12.] the IC50 (PRMT5/MEP50; Table E-2) was 101 to 1000 nM.
For O=C(NCC(O)CN1Cc2ccccc2C1)c1cccc(-c2ccccn2)c1 (stereo not drawn) [Compound E13.], the IC50 (PRMT5/MEP50; Table E-2) was 101 to 1000 nM.
CN(C)S(=O)(=O)c1ccccc1OCC(=O)NCC(O)CN1Cc2ccccc2C1 (stereo not drawn) [Compound E15.] was tested, and the IC50 (PRMT5/MEP50; Table E-2) was < 100 nM.
With O=C(COc1cccc2cccnc12)NC[C@@H](O)CN1Cc2ccccc2C1 [Compound E16.] the IC50 (PRMT5/MEP50; Table E-2) was 1000 to 10000 nM.
In the case of COc1ccc(Cn2cnc3ccc(-c4ccc(OCC(O)CN5Cc6ccccc6C5)cc4)cc32)cc1 (stereo not drawn) [Compound E18.], the IC50 (PRMT5/MEP50; Table E-2) is reported as 1000 to 10000 nM.
For O=C(COc1cccc2cccnc12)NCC(O)CN1Cc2ccccc2C1 (stereo not drawn) [Compound E19.], the IC50 (PRMT5/MEP50; Table E-2) was 101 to 1000 nM.
OC(COc1cccc(CNC2CCCC2)c1)CN1Cc2ccccc2C1 (stereo not drawn) [Compound E20.] was tested, and the IC50 (PRMT5/MEP50; Table E-2) was 1000 to 10000 nM.
